From PubChem BioAssay (NCI)
Where “and” joins values, the source holds several entries; their conditions need not be identical. Equal values may be shown once.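 Where inhibition never reached the appropriate level, the endpoint shown equals the highest concentration tested. Otherwise, values were interpolated linearly from a five-concentration, 48-hour dose response in 96-well plates. GI50 = concentration required for 50% inhibition of growth. TGI: total growth inhibition.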

Tested on: 786-0 renal
Assay: growth of human tumour cells (NCI), 48 h

SMILES	TGI [µM]
COc1ccc(-c2c3c([nH]c(=S)c2C#N)CC(C)(C)CC3=O)cc1	> 100
O=c1[nH]cnc2c1ncn2[C@@H]1C[C@@H]1CO	> 100
COC(=O)c1cc2c(cc1CC1Cc3cc4c(cc3C1)CCC4)CCC2	> 100
COC(=O)CCc1cc(OC)c2c(c1)[C@H](C(=O)OC)[C@@H](c1ccc(O)c(OC)c1)O2	> 100
COC(=O)CN1c2nc(C#N)c(C#N)nc2N(CC(=O)OC)c2nc(C#N)c(C#N)nc21	5.21
COc1nc2ncc([C@@H](OC(C)=O)[C@@H](COC(C)=O)OC(C)=O)nc2c(=O)[nH]1	> 100
N/C(=N\S(=O)(=O)c1c(C(F)(F)F)cccc1C(F)(F)F)Nc1ccc(Cl)cc1	74.7
CNc1ncnc2c1cnn2COCC(O)CO (centres undefined)	> 100
COc1cc(-c2cc(=O)c3cc4c(=O)cc(-c5cc(OC)c(OC)c(OC)c5)oc4cc3o2)cc(OC)c1OC	39
Nc1nc(Cl)cc(NCC2(CO)CCC(CCc3ccccc3)C2)n1 (centres undefined)	31.9
O=c1ccn(C2OC(CO)C(P(=O)(O)O)C2O)c(=O)[nH]1 (centres undefined)	> 100

Tested on: HT29 colon
Assay: growth of human tumour cells (NCI), 48 h

SMILES	TGI [µM]
COc1ccc(-c2c3c([nH]c(=S)c2C#N)CC(C)(C)CC3=O)cc1	> 100
O=c1[nH]cnc2c1ncn2[C@@H]1C[C@@H]1CO	> 100
COC(=O)c1cc2c(cc1CC1Cc3cc4c(cc3C1)CCC4)CCC2	> 100
COC(=O)CCc1cc(OC)c2c(c1)[C@H](C(=O)OC)[C@@H](c1ccc(O)c(OC)c1)O2	> 100
COC(=O)CN1c2nc(C#N)c(C#N)nc2N(CC(=O)OC)c2nc(C#N)c(C#N)nc21	12.1
COc1nc2ncc([C@@H](OC(C)=O)[C@@H](COC(C)=O)OC(C)=O)nc2c(=O)[nH]1	> 100
N/C(=N\S(=O)(=O)c1c(C(F)(F)F)cccc1C(F)(F)F)Nc1ccc(Cl)cc1	> 100
CNc1ncnc2c1cnn2COCC(O)CO (centres undefined)	> 100
COc1cc(-c2cc(=O)c3cc4c(=O)cc(-c5cc(OC)c(OC)c(OC)c5)oc4cc3o2)cc(OC)c1OC	> 100
Nc1nc(Cl)cc(NCC2(CO)CCC(CCc3ccccc3)C2)n1 (centres undefined)	21.4
O=c1ccn(C2OC(CO)C(P(=O)(O)O)C2O)c(=O)[nH]1 (centres undefined)	> 100

Tested on: MOLT-4 leukemia
Assay: growth of human tumour cells (NCI), 48 h

SMILES	TGI [µM]	GI50
COc1ccc(-c2c3c([nH]c(=S)c2C#N)CC(C)(C)CC3=O)cc1	> 100	–
O=c1[nH]cnc2c1ncn2[C@@H]1C[C@@H]1CO	> 100	–
COC(=O)c1cc2c(cc1CC1Cc3cc4c(cc3C1)CCC4)CCC2	36.9	–
COC(=O)CCc1cc(OC)c2c(c1)[C@H](C(=O)OC)[C@@H](c1ccc(O)c(OC)c1)O2	> 100	–
COC(=O)CN1c2nc(C#N)c(C#N)nc2N(CC(=O)OC)c2nc(C#N)c(C#N)nc21	> 22	–
COc1nc2ncc([C@@H](OC(C)=O)[C@@H](COC(C)=O)OC(C)=O)nc2c(=O)[nH]1	> 100	> 100 µM and 49.9 µM
N/C(=N\S(=O)(=O)c1c(C(F)(F)F)cccc1C(F)(F)F)Nc1ccc(Cl)cc1	> 100	–
CNc1ncnc2c1cnn2COCC(O)CO (centres undefined)	> 100	–
COc1cc(-c2cc(=O)c3cc4c(=O)cc(-c5cc(OC)c(OC)c(OC)c5)oc4cc3o2)cc(OC)c1OC	> 100	–
Nc1nc(Cl)cc(NCC2(CO)CCC(CCc3ccccc3)C2)n1 (centres undefined)	11.7	–
O=c1ccn(C2OC(CO)C(P(=O)(O)O)C2O)c(=O)[nH]1 (centres undefined)	> 100	–

Tested on: EKVX NSCLC
Assay: growth of human tumour cells (NCI), 48 h

SMILES	TGI [µM]
COc1ccc(-c2c3c([nH]c(=S)c2C#N)CC(C)(C)CC3=O)cc1	> 100
O=c1[nH]cnc2c1ncn2[C@@H]1C[C@@H]1CO	> 100
COC(=O)c1cc2c(cc1CC1Cc3cc4c(cc3C1)CCC4)CCC2	> 100
COC(=O)CCc1cc(OC)c2c(c1)[C@H](C(=O)OC)[C@@H](c1ccc(O)c(OC)c1)O2	> 100
COC(=O)CN1c2nc(C#N)c(C#N)nc2N(CC(=O)OC)c2nc(C#N)c(C#N)nc21	> 51.3
COc1nc2ncc([C@@H](OC(C)=O)[C@@H](COC(C)=O)OC(C)=O)nc2c(=O)[nH]1	> 100
N/C(=N\S(=O)(=O)c1c(C(F)(F)F)cccc1C(F)(F)F)Nc1ccc(Cl)cc1	36.2
CNc1ncnc2c1cnn2COCC(O)CO (centres undefined)	> 100
COc1cc(-c2cc(=O)c3cc4c(=O)cc(-c5cc(OC)c(OC)c(OC)c5)oc4cc3o2)cc(OC)c1OC	> 100
Nc1nc(Cl)cc(NCC2(CO)CCC(CCc3ccccc3)C2)n1 (centres undefined)	25.9
O=c1ccn(C2OC(CO)C(P(=O)(O)O)C2O)c(=O)[nH]1 (centres undefined)	> 100

Tested on: RXF 393 renal
Assay: growth of human tumour cells (NCI), 48 h

SMILES	TGI [µM]
COc1ccc(-c2c3c([nH]c(=S)c2C#N)CC(C)(C)CC3=O)cc1	> 100
O=c1[nH]cnc2c1ncn2[C@@H]1C[C@@H]1CO	> 100
COC(=O)c1cc2c(cc1CC1Cc3cc4c(cc3C1)CCC4)CCC2	> 100
COC(=O)CCc1cc(OC)c2c(c1)[C@H](C(=O)OC)[C@@H](c1ccc(O)c(OC)c1)O2	> 100
COC(=O)CN1c2nc(C#N)c(C#N)nc2N(CC(=O)OC)c2nc(C#N)c(C#N)nc21	7.09
COc1nc2ncc([C@@H](OC(C)=O)[C@@H](COC(C)=O)OC(C)=O)nc2c(=O)[nH]1	> 100
N/C(=N\S(=O)(=O)c1c(C(F)(F)F)cccc1C(F)(F)F)Nc1ccc(Cl)cc1	> 100
CNc1ncnc2c1cnn2COCC(O)CO (centres undefined)	> 100
COc1cc(-c2cc(=O)c3cc4c(=O)cc(-c5cc(OC)c(OC)c(OC)c5)oc4cc3o2)cc(OC)c1OC	26.4
Nc1nc(Cl)cc(NCC2(CO)CCC(CCc3ccccc3)C2)n1 (centres undefined)	29.9
O=c1ccn(C2OC(CO)C(P(=O)(O)O)C2O)c(=O)[nH]1 (centres undefined)	> 100

Tested on: SK-MEL-5 melanoma
Assay: growth of human tumour cells (NCI), 48 h

SMILES	TGI [µM]
COc1ccc(-c2c3c([nH]c(=S)c2C#N)CC(C)(C)CC3=O)cc1	> 100
O=c1[nH]cnc2c1ncn2[C@@H]1C[C@@H]1CO	> 100
COC(=O)c1cc2c(cc1CC1Cc3cc4c(cc3C1)CCC4)CCC2	> 100
COC(=O)CCc1cc(OC)c2c(c1)[C@H](C(=O)OC)[C@@H](c1ccc(O)c(OC)c1)O2	> 100
COC(=O)CN1c2nc(C#N)c(C#N)nc2N(CC(=O)OC)c2nc(C#N)c(C#N)nc21	> 53.8
COc1nc2ncc([C@@H](OC(C)=O)[C@@H](COC(C)=O)OC(C)=O)nc2c(=O)[nH]1	> 100
N/C(=N\S(=O)(=O)c1c(C(F)(F)F)cccc1C(F)(F)F)Nc1ccc(Cl)cc1	35.6
CNc1ncnc2c1cnn2COCC(O)CO (centres undefined)	> 100
COc1cc(-c2cc(=O)c3cc4c(=O)cc(-c5cc(OC)c(OC)c(OC)c5)oc4cc3o2)cc(OC)c1OC	> 100
Nc1nc(Cl)cc(NCC2(CO)CCC(CCc3ccccc3)C2)n1 (centres undefined)	15.6
O=c1ccn(C2OC(CO)C(P(=O)(O)O)C2O)c(=O)[nH]1 (centres undefined)	> 100

Tested on: PC-3 prostate
Assay: growth of human tumour cells (NCI), 48 h

SMILES	TGI [µM]
COc1ccc(-c2c3c([nH]c(=S)c2C#N)CC(C)(C)CC3=O)cc1	> 100
O=c1[nH]cnc2c1ncn2[C@@H]1C[C@@H]1CO	> 100
COC(=O)c1cc2c(cc1CC1Cc3cc4c(cc3C1)CCC4)CCC2	> 100
COC(=O)CCc1cc(OC)c2c(c1)[C@H](C(=O)OC)[C@@H](c1ccc(O)c(OC)c1)O2	> 100
COC(=O)CN1c2nc(C#N)c(C#N)nc2N(CC(=O)OC)c2nc(C#N)c(C#N)nc21	18.4
COc1nc2ncc([C@@H](OC(C)=O)[C@@H](COC(C)=O)OC(C)=O)nc2c(=O)[nH]1	> 100
N/C(=N\S(=O)(=O)c1c(C(F)(F)F)cccc1C(F)(F)F)Nc1ccc(Cl)cc1	25.6
CNc1ncnc2c1cnn2COCC(O)CO (centres undefined)	> 100
COc1cc(-c2cc(=O)c3cc4c(=O)cc(-c5cc(OC)c(OC)c(OC)c5)oc4cc3o2)cc(OC)c1OC	> 100
Nc1nc(Cl)cc(NCC2(CO)CCC(CCc3ccccc3)C2)n1 (centres undefined)	43.4
O=c1ccn(C2OC(CO)C(P(=O)(O)O)C2O)c(=O)[nH]1 (centres undefined)	> 100

Tested on: SF-539 CNS
Assay: growth of human tumour cells (NCI), 48 h

SMILES	TGI [µM]
COc1ccc(-c2c3c([nH]c(=S)c2C#N)CC(C)(C)CC3=O)cc1	> 100
O=c1[nH]cnc2c1ncn2[C@@H]1C[C@@H]1CO	> 100
COC(=O)c1cc2c(cc1CC1Cc3cc4c(cc3C1)CCC4)CCC2	> 100
COC(=O)CCc1cc(OC)c2c(c1)[C@H](C(=O)OC)[C@@H](c1ccc(O)c(OC)c1)O2	> 100
COC(=O)CN1c2nc(C#N)c(C#N)nc2N(CC(=O)OC)c2nc(C#N)c(C#N)nc21	24.2
COc1nc2ncc([C@@H](OC(C)=O)[C@@H](COC(C)=O)OC(C)=O)nc2c(=O)[nH]1	> 100
N/C(=N\S(=O)(=O)c1c(C(F)(F)F)cccc1C(F)(F)F)Nc1ccc(Cl)cc1	> 100
CNc1ncnc2c1cnn2COCC(O)CO (centres undefined)	> 100
COc1cc(-c2cc(=O)c3cc4c(=O)cc(-c5cc(OC)c(OC)c(OC)c5)oc4cc3o2)cc(OC)c1OC	> 100
Nc1nc(Cl)cc(NCC2(CO)CCC(CCc3ccccc3)C2)n1 (centres undefined)	33.4
O=c1ccn(C2OC(CO)C(P(=O)(O)O)C2O)c(=O)[nH]1 (centres undefined)	> 100

Tested on: TK-10 renal
Assay: growth of human tumour cells (NCI), 48 h

SMILES	TGI [µM]
COc1ccc(-c2c3c([nH]c(=S)c2C#N)CC(C)(C)CC3=O)cc1	> 100
O=c1[nH]cnc2c1ncn2[C@@H]1C[C@@H]1CO	> 100
COC(=O)c1cc2c(cc1CC1Cc3cc4c(cc3C1)CCC4)CCC2	> 100
COC(=O)CCc1cc(OC)c2c(c1)[C@H](C(=O)OC)[C@@H](c1ccc(O)c(OC)c1)O2	> 100
COC(=O)CN1c2nc(C#N)c(C#N)nc2N(CC(=O)OC)c2nc(C#N)c(C#N)nc21	6.78
